Experimental data as given in ChEMBL document CHEMBL4251656, “Design, synthesis, and biological evaluation of novel catecholopyrimidine based PDE4 inhibitor for the treatment of atopic dermatitis” (Eur J Med Chem, 2018).
Active and inactive are the calls of the source. The rule behind the calls is not given here.

Legend:
[1] = target: Dual 3',5'-cyclic-AMP and -GMP phosphodiesterase 11A (Homo sapiens, UniProt Q9HCR9); assay: Inhibition of PDE11A (unknown origin) using cAMP as substrate after 1 hr by LANCE TR-FRET assay
[2] = target: T1, 3',5'-cyclic-AMP phosphodiesterase 4B (Homo sapiens, UniProt Q07343); assay: Inhibition of recombinant human full length N-terminal GST-tagged PDE4B1 expressed in baculovirus infected Sf9 cells using cAMP as substrate after 1 hr by LANCE TR-FRET assay
[3] = target: T2, 3',5'-cyclic-AMP phosphodiesterase 4A (Homo sapiens, UniProt P27815); assay: Inhibition of recombinant full length human N-terminal GST-tagged PDE4A1 expressed in baculovirus infected Sf9 cells using cAMP as substrate after 1 hr by LANCE TR-FRET assay
[4] = target: T1, 3',5'-cyclic-AMP phosphodiesterase 4B; assay: Inhibition of recombinant full length human N-terminal GST-tagged PDE4B1 expressed in baculovirus infected Sf9 cells using cAMP as substrate after 1 hr by LANCE TR-FRET assay
[5] = target: 3',5'-cyclic-AMP phosphodiesterase 4C (Homo sapiens, UniProt Q08493); assay: Inhibition of recombinant human full length N-terminal GST-tagged PDE4C1 expressed in baculovirus infected Sf9 cells using cAMP as substrate after 1 hr by LANCE TR-FRET assay
[6] = target: T2, 3',5'-cyclic-AMP phosphodiesterase 4A; assay: Inhibition of recombinant human N-terminal GST-tagged PDE4A4 (2 to 886 residues) expressed in baculovirus infected Sf9 cells using cAMP as substrate after 1 hr by LANCE TR-FRET assay
[7] = target: 3',5'-cyclic-AMP phosphodiesterase 4D (Homo sapiens, UniProt Q08499); assay: Inhibition of recombinant human N-terminal GST-tagged PDE4D7 (2 to 748 residues) expressed in baculovirus infected Sf9 cells using cAMP as substrate after 1 hr by LANCE TR-FRET assay
[8] = test system: Mus musculus; assay: Reversal of DNCB-induced atopic dermatitis-like symptoms in Balb/c mouse assessed as reduction in skin erosion administered topically once daily starting from day 6 post DNCB treatment up to 34 days; assay type: functional, organism-based
[9] = test system: Mus musculus; assay: Reversal of DNCB-induced atopic dermatitis-like symptoms in Balb/c mouse assessed as reduction in inflammatory cell infilteration in epidermal and dermal region of skin administered topically once daily starting from day 6 post DNCB treatment up to 34 days by toluidine blue staining based light microscopic method; assay type: functional, organism-based
[10] = species: Homo sapiens; assay: Selectivity ratio of IC50 for nhibition of recombinant human N-terminal GST-tagged PDE4D7 (2 to 748 residues) expressed in baculovirus infected Sf9 cells to IC50 for recombinant full length human N-terminal GST-tagged PDE4B1 expressed in baculovirus infected Sf9 cells
[11] = test system: Mus musculus; assay: Reversal of DNCB-induced atopic dermatitis-like symptoms in Balb/c mouse assessed as reduction in erythema administered topically once daily starting from day 6 post DNCB treatment up to 34 days; assay type: functional, organism-based
[12] = test system: Mus musculus; assay: Toxicity in Balb/c mouse assessed as effect on skin architecture administered topically once daily up to 34 days by hematoxylin and eosin staining based light microscopic method; assay type: organism-based; settings: in vivo, topical_or_ocular, 816 h
[13] = test system: Mus musculus; assay: Reversal of DNCB-induced atopic dermatitis-like symptoms in Balb/c mouse assessed as reduction in scratching frequency administered topically once daily starting from day 6 post DNCB treatment up to 34 days; assay type: functional, organism-based
[14] = test system: Mus musculus; assay: Reversal of DNCB-induced atopic dermatitis-like symptoms in Balb/c mouse assessed as reduction in signs of edema administered topically once daily starting from day 6 post DNCB treatment up to 34 days by hematoxylin and eosin staining based light microscopic method; assay type: functional, organism-based
[15] = test system: Mus musculus; assay: Reversal of DNCB-induced atopic dermatitis-like symptoms in Balb/c mouse assessed as reduction in edema administered topically once daily starting from day 6 post DNCB treatment up to 34 days; assay type: functional, organism-based
[16] = test system: Mus musculus; assay: Reversal of DNCB-induced atopic dermatitis-like symptoms in Balb/c mouse assessed as reduction in TNF-alpha level in skin administered topically once daily starting from day 6 post DNCB treatment up to 34 days; assay type: functional, organism-based
[17] = test system: Mus musculus; assay: Reversal of DNCB-induced atopic dermatitis-like symptoms in Balb/c mouse assessed as dorsal skin thickness administered topically once daily starting from day 6 post DNCB treatment up to 34 days (reference value: 1.19 millimeter); assay type: functional
[18] = test system: Mus musculus; assay: Reversal of DNCB-induced atopic dermatitis-like symptoms in Balb/c mouse assessed as reduction in excoriation administered topically once daily starting from day 6 post DNCB treatment up to 34 days; assay type: functional, organism-based
[19] = test system: Mus musculus; assay: Reversal of DNCB-induced atopic dermatitis-like symptoms in Balb/c mouse assessed as reduction in epidermal thickness administered topically once daily starting from day 6 post DNCB treatment up to 34 days by hematoxylin and eosin staining based light microscopic method; assay type: functional, organism-based
[20] = test system: Mus musculus; assay: Reversal of DNCB-induced atopic dermatitis-like symptoms in Balb/c mouse assessed as reduction in hyperkeratosis administered topically once daily starting from day 6 post DNCB treatment up to 34 days by hematoxylin and eosin staining based light microscopic method; assay type: functional, organism-based
[21] = test system: Mus musculus; assay: Reversal of DNCB-induced atopic dermatitis-like symptoms in Balb/c mouse assessed as reduction in hemorrhage administered topically once daily starting from day 6 post DNCB treatment up to 34 days; assay type: functional, organism-based
[22] = test system: Mus musculus; assay: Reversal of DNCB-induced atopic dermatitis-like symptoms in Balb/c mouse assessed as reduction in skin scaling or dryness administered topically once daily starting from day 6 post DNCB treatment up to 34 days; assay type: functional, organism-based
[23] = test system: Mus musculus; assay: Reversal of DNCB-induced atopic dermatitis-like symptoms in Balb/c mouse assessed as reduction in hypertrophy administered topically once daily starting from day 6 post DNCB treatment up to 34 days by hematoxylin and eosin staining based light microscopic method; assay type: functional, organism-based
[24] = test system: Mus musculus; assay: Reversal of DNCB-induced atopic dermatitis-like symptoms in Balb/c mouse assessed as reduction in serum Ig-E level administered topically once daily starting from day 6 post DNCB treatment up to 34 days; assay type: functional, organism-based
[25] = test system: Mus musculus; assay: Reversal of DNCB-induced atopic dermatitis-like symptoms in Balb/c mouse assessed as reduction in epidermal hyperplasia administered topically once daily starting from day 6 post DNCB treatment up to 34 days by hematoxylin and eosin staining based light microscopic method; assay type: functional, organism-based
[26] = test system: Mus musculus; assay: Toxicity in Balb/c mouse assessed as induction of allergy administered topically once daily up to 34 days; assay type: organism-based; settings: in vivo, topical_or_ocular, 816 h
[27] = target: cGMP-inhibited 3',5'-cyclic phosphodiesterase 3B (Homo sapiens, UniProt Q13370); assay: Inhibition of recombinant human N-terminal GST-tagged PDE3B (592-end residues) expressed in baculovirus infected Sf9 cells using cAMP as substrate after 1 hr by LANCE TR-FRET assay

T1 sequence (Q07343 whole entry): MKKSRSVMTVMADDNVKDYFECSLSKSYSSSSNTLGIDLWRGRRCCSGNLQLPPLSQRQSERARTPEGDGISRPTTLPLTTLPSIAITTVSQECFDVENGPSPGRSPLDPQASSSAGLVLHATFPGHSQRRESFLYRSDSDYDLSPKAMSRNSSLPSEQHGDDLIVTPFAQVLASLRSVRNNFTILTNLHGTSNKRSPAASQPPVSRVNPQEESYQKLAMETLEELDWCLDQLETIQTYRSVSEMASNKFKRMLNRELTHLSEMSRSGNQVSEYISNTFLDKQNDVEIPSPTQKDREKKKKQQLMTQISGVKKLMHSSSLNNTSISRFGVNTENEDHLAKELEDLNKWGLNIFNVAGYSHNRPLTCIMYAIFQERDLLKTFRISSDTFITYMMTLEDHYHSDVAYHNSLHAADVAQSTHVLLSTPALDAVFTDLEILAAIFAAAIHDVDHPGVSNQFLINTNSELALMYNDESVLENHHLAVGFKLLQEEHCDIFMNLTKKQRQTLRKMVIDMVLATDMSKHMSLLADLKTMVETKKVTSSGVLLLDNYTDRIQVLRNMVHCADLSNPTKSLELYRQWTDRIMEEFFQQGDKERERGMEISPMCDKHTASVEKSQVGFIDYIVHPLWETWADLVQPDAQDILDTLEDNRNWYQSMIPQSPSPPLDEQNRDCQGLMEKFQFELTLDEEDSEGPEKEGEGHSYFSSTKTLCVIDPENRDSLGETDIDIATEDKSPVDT
Chain of 3',5'-cyclic-AMP phosphodiesterase 4D (Q08499 whole entry, the tested form may be a part): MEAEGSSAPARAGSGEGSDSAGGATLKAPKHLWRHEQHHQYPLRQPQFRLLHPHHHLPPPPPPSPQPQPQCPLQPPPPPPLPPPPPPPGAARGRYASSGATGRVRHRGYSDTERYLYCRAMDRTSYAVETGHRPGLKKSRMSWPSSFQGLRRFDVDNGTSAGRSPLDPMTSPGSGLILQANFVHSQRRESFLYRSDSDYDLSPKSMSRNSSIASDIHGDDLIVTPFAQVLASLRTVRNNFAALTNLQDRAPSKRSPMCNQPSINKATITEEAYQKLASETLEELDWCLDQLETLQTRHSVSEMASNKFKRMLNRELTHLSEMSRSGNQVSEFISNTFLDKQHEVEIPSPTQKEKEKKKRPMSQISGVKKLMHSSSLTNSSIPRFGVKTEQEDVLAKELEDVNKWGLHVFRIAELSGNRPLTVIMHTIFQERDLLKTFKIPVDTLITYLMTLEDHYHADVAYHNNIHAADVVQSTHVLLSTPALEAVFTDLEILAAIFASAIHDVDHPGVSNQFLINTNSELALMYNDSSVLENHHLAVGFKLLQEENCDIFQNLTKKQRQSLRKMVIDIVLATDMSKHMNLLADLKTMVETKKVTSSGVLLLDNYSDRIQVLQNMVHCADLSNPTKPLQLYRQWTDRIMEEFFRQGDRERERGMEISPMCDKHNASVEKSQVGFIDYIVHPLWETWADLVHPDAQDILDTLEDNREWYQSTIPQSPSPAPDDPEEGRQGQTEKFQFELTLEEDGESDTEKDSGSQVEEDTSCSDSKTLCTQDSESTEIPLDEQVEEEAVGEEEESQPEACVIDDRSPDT
Chain of 3',5'-cyclic-AMP phosphodiesterase 4C (Q08493 whole entry, the tested form may be a part): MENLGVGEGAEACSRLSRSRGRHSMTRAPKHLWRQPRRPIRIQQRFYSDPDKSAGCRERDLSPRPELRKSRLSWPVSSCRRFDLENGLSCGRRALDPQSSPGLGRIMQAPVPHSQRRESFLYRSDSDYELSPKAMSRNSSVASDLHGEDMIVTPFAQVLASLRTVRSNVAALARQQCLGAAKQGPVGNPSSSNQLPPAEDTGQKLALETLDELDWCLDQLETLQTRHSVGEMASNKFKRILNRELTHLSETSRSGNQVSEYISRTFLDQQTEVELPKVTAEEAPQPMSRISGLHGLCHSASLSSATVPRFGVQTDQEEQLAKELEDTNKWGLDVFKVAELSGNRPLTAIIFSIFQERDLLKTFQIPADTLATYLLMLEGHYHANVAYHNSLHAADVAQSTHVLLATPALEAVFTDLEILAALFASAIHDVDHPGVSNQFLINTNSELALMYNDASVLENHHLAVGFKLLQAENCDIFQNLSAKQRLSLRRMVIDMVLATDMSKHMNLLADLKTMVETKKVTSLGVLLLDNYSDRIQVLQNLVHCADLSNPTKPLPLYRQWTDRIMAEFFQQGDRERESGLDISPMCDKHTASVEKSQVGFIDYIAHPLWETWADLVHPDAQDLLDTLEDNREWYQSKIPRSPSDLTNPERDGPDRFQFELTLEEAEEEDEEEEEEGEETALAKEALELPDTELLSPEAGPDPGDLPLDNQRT
Chain of Dual 3',5'-cyclic-AMP and -GMP phosphodiesterase 11A (Q9HCR9 whole entry): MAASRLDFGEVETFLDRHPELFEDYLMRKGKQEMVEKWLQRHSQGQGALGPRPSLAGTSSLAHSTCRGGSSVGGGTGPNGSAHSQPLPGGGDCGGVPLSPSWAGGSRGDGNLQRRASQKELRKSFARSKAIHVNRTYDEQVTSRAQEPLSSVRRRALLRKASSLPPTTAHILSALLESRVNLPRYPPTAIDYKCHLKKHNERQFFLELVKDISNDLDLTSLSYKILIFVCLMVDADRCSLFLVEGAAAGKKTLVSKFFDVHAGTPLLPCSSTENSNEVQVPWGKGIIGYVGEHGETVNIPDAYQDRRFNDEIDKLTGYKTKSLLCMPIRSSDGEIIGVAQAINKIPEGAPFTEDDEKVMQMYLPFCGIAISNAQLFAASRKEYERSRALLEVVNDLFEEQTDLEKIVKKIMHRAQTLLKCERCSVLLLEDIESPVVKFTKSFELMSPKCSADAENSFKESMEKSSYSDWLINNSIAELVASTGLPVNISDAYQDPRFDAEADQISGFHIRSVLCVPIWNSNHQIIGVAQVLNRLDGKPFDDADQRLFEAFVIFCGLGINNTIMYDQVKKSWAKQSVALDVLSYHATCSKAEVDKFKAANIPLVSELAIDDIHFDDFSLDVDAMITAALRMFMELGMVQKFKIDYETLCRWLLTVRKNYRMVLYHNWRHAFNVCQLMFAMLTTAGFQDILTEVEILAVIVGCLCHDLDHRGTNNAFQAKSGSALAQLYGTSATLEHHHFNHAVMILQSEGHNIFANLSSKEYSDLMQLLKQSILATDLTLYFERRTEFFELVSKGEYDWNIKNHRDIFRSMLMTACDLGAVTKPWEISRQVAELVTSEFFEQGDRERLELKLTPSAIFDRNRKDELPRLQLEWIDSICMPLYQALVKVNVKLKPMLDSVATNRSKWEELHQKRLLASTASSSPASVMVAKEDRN
T2 sequence (P27815 whole entry): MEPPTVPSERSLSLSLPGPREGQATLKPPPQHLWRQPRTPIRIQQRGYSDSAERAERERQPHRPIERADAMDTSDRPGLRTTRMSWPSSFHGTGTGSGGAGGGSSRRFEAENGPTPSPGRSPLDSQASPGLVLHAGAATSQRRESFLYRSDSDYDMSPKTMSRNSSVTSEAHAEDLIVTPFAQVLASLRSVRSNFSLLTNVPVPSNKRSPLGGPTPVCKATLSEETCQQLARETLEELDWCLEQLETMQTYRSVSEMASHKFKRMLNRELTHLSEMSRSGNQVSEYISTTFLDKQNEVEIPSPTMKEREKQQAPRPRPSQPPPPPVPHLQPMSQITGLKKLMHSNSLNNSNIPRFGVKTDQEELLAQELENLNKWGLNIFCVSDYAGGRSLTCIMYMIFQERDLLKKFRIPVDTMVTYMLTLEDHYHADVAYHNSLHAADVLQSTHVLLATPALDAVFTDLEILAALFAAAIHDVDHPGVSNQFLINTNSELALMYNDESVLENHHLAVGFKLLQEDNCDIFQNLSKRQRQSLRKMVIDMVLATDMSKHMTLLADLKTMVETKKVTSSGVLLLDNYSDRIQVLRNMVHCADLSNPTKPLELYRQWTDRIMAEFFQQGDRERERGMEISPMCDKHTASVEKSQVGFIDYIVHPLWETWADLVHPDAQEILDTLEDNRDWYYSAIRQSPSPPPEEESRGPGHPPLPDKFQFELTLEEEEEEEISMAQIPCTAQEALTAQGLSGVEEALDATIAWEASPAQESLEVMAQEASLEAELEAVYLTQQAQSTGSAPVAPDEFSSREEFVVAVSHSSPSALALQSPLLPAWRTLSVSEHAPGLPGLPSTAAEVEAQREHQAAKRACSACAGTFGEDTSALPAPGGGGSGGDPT

Row | IC50 [1] [nM] | IC50 [2] [nM] | IC50 [3] [nM] | IC50 [4] [nM] | IC50 [5] [nM] | IC50 [6] [nM] | IC50 [7] [nM] | Structure (SMILES) | further results
1 | 480 | 31 | 756 |  |  |  |  | COc1ccc(NC(=O)c2cnc(SC)nc2N2CCOCC2)cc1OC | 
2 |  |  |  | 150 |  |  |  | COc1ccc(CCNC(=O)c2cnc(C(F)(F)F)nc2N2CCOCC2)cc1OC | 
3 |  |  |  | 222 |  |  |  | COc1ccc(-c2nc(C(F)(F)F)ncc2C(=O)Nc2c(C(C)C)cccc2C(C)C)cc1OC | 
4 |  |  |  | 238 |  |  |  | COc1ccc(CCNC(=O)c2cnc(SC)nc2N2CCN(CCO)CC2)cc1OC | 
5 | 250 | 15 | 98 |  |  |  |  | COc1ccc(-c2nc(C(F)(F)F)ncc2C(=O)Nc2ccncc2)cc1OC | Activity [8]: Active; Activity [9]: Active; Ratio IC50 [10]: 7; Activity [11]: Active; Activity [12]: Non-Toxic; Activity [13]: Active; Activity [14]: Active; Activity [15]: Active; Activity [16]: Active; Activity [17]: 0.71 mm; Activity [18]: Active; Activity [19]: Active; Activity [20]: Active; Activity [21]: Active; Activity [22]: Active; Activity [23]: Active; Activity [24]: Active; Activity [25]: Active; Activity [26]: Non-Toxic
6 | 1500 | 67 | 678 |  | 156 | 100 | 385 | COc1ccc(NC(=O)c2cnc(C(F)(F)F)nc2N2CCOCC2)cc1OC | IC50 [27]: 950 nM
7 | 245 | 44 | 281 |  | 39 | 89 | 360 | COc1ccc(-c2nc(C(F)(F)F)ncc2C(=O)Nc2c(Cl)cncc2Cl)cc1OC | IC50 [27]: 321 nM

Row | Structure (SMILES) | IC50 [1] [nM] | IC50 [2] [nM] | IC50 [3] [nM] | IC50 [4] [nM] | IC50 [5] [nM] | IC50 [6] [nM] | IC50 [7] [nM] | further results
8 | COc1ccc(CCNC(=O)c2cnc(SC)nc2N2CCOCC2)cc1OC | 659 | 61 |  | 61 | 326 | 284 | 136 | 
